In PubChem BioAssay (NCI):
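Protocol summary: plate cells (96-well), add compound at 5 concentrations, incubate 48 h, interpolate endpoints linearly. At the GI50, growth is halved. TGI: total growth inhibition.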

Assays:
Experiment in all cases: NCI tumour cell line growth inhibition, 48 h
[1] = tested on: NCI-H522 lung
[2] = tested on: OVCAR-5 ovarian
[3] = tested on: SN12C renal
[4] = tested on: SK-OV-3 ovarian
[5] = tested on: IGROV1 ovarian
[6] = tested on: UACC-62 melanoma
[7] = tested on: LOX IMVI melanoma
[8] = tested on: MDA-MB-231 breast
[9] = tested on: T-47D breast
[10] = tested on: NCI/ADR-RES ovarian

SMILES	TGI [1] [µM]	TGI [2] [µM]	TGI [3] [µM]	TGI [4] [µM]	TGI [5] [µM]	TGI [6] [µM]	TGI [7] [µM]	GI50 [1] [µM]	GI50 [2] [µM]	GI50 [3] [µM]	GI50 [4] [µM]	GI50 [5] [µM]	GI50 [6] [µM]	GI50 [7] [µM]	GI50 [8] [µM]	TGI [8] [µM]	GI50 [9] [µM]	TGI [9] [µM]	GI50 [10] [µM]	TGI [10] [µM]
CCC(O)C1Cc2c(C)cc3c(c2O1)C(=O)c1ccccc1C3=O (stereo not drawn)	51.6	> 100	> 100	89.4	> 100	> 100	93.7	–	–	–	–	–	–	–	–	–	–	–	–	–
O=C(O)COc1ccc(C(=O)/C(SS/C(C(=O)c2ccc(OCC(=O)O)c(Cl)c2Cl)=C2\C=C(c3ccc(Cl)cc3)SS2)=C2/C=C(c3ccc(Cl)cc3)SS2)c(Cl)c1Cl	9.54	> 100	1.79	> 100	76.2	25.7	15.3	–	–	–	–	–	–	–	–	–	–	–	–	–
O=C(OC1CCC2OOC1O2)c1ccc([N+](=O)[O-])cc1 (stereo not drawn)	> 100	> 100	> 100	> 100	> 100	> 100	> 100	–	–	–	–	–	–	–	–	–	–	–	–	–
N#CCCCCCOCCOCCOCCOCCOCCCCCC#N	> 100	> 100	> 100	> 100	> 100	> 100	> 100	–	–	–	–	–	–	–	–	–	–	–	–	–
COc1ccc(NC(=O)CC/C(CC(=O)c2ccco2)=N/NC(N)=S)cc1	> 100	> 100	> 100	> 100	> 100	> 100	> 100	–	–	–	–	–	–	–	–	–	–	–	–	–
NC1CCCCC1N.O=[Se]([O-])[O-].[Pt+4] (stereo not drawn)	11.2	27.9	> 100	> 100	> 46	> 41.8	> 100	0.589	1.83	1.67	27.8	2.11	1.33	0.677	–	–	–	–	–	–
CCCCCCn1c(-c2ccc(C(=O)O/N=C(\N)c3ccc4ccccc4c3)cc2)nc(-c2ccccc2)c1-c1ccccc1	> 100	> 100	> 100	> 90.9	–	> 100	–	24.5	> 100	> 100	25.9	–	22.6	–	17.8	> 100	4.99	> 100	3.02	> 100
COc1ccc2cc(C(=O)/C=C/c3ccc(N(C)C)cc3)ccc2c1	> 100	–	> 100	> 100	> 100	> 100	> 100	39.1	–	> 100	> 100	47.8	> 100	48.1	40.2	> 100	> 100	> 100	49.8	> 100
CCCCNC(=O)C1C(=O)N(CCCC)C(=O)/C1=N\N (stereo not drawn)	> 100	> 100	> 100	> 100	> 100	> 100	> 100	–	–	–	–	–	–	–	–	–	–	–	–	–
CC(N)(/C=C/c1ccccc1)C(=O)O (stereo not drawn)	> 100	> 100	> 100	> 100	> 100	> 100	> 100	–	–	–	–	–	–	–	–	> 100	–	–	–	> 100
Nc1nc(Cl)cc(NCC(O)CO)n1 (stereo not drawn)	–	> 100	> 100	> 100	> 100	> 100	> 100	–	–	–	–	–	–	–	–	–	–	–	–	–
CCCCCCCCCCCC(=O)N1CCN(C(C)=O)CC1	38.4	48.5	37.3	39.7	42.5	34.9	> 100	17.4	21.2	18.8	20.7	18.8	19.7	34.4	21	38.2	–	–	25.9	72.6
COc1ccc(Sc2nc3cc(N)cc(N)c3nc2-c2ccccc2)cc1	> 100	> 100	> 100	> 100	–	> 100	> 100	3.2	> 100	> 100	32.9	–	38	51	> 100	> 100	> 100	> 100	> 100	> 100
CCCNCC(=O)O[C@]1(CC)C(=O)OCc2c1cc1n(c2=O)Cc2cc3ccccc3nc2-1	1.63	3.96	0.215	> 100	4.68	1.12	0.662	–	–	–	–	–	–	–	–	–	–	–	–	–
NC(N)=NC(N)=Nc1cnccn1	> 100	–	> 100	> 100	> 100	> 100	> 100	–	–	–	–	–	–	–	–	> 100	–	> 100	–	> 100
CCN1C(=O)N(CC)C2C1NN=c1s/c(=C\c3ccco3)c(=O)n12 (stereo not drawn)	–	> 100	> 100	> 100	> 100	> 100	> 100	0.33	1.31	0.941	0.816	1.16	0.446	0.653	0.961	41.2	–	–	0.417	> 100
CC[C@@]1(O)C(=O)OCc2c1cc1n(c2=O)Cc2cc3cccc([N+](=O)[O-])c3nc2-1	23.3	28.4	5.01	17.1	14.9	1.28	6.14	1.04	1.55	0.382	0.501	1.96	0.299	0.429	–	–	–	–	–	–
C(=N\Nc1ccccc1)/c1nc2ccccc2nc1/C=N/Nc1ccccc1	35.9	84.9	36.4	38.6	21.5	27.3	22.1	–	–	–	–	–	–	–	–	–	–	–	–	–
Clc1ccc(Nc2ccnc(N3CCN(c4ccnc5cc(Cl)ccc45)CC3)n2)cc1	4.94	–	28.6	44.7	> 100	6.97	3.58	1.65	–	3	3.28	3.82	1.95	1.84	2.22	7.22	1.99	8.53	2.68	7.83
